Literature values as cited in patent US20040009962A1, “Combined estrogen blockade of the breast with exemestane and raloxifene” (priority 2000, published 2004).
Read-outs that look alike come from different tables or passages of the source.

What was measured:
whole body aromatization = conditions: 10 postmenopausal women with advanced breast cancer
rats [1] = test system: rats
[2] = test system: plasma estrogen levels (E2, E1, E1S); conditions: suppression of E2, E1 and E1S, postmenopausal women
[3] = test system: DMBA-induced rat mammary tumor; conditions: DMBA-induced rat mammary tumor model
metastatic breast cancer [4] = test system: metastatic breast cancer
metastatic breast cancer [5] = conditions: 25 mg/day orally, 241 women
[6] = Ames, V79, E. coli, DNA repair on rat hepatocytes, micronucleus, in vivo and in vitro chromosome aberration
[7] = except at relatively high doses
[8] = test system: 7, 12-dimethyl-benzanthracene (DMBA)-induced mammary tumors; conditions: rats
metastatic breast cancer [9] = conditions: 25 mg/day
[10] = test system: healthy postmenopausal women
[11] = test system: DMBA- and NMN-induced mammary carcinogenesis; conditions: may be less when compared with tamoxifen
endometrium = conditions: baseline vs 8 weeks of treatment
metastatic breast cancer [12] = conditions: 200 mg/day
[13] = deep vein thrombosis, pulmonary embolism, retinal vein thrombosis
healthy men = conditions: 200 mg/day orally
rats [14] = test system: rats; remark: listed apart in the source
[15] = test system: early stage breast cancer
[16] = test system: MCF-7 breast cancer cells; conditions: estrogen deficient state vs supplemented with estrogen
metastatic breast cancer [17] = test system: metastatic breast cancer; remark: listed apart in the source
[18] = all doses, interim analysis, vs placebo

C=C1C[C@@H]2[C@H](CC[C@]3(C)C(=O)CC[C@@H]23)[C@@]2(C)C=CC(=O)C=C12 [exemestane, Exemestane]
mean suppression of whole body aromatization (whole body aromatization): 97.9%
whole body aromatization on treatment (mean) (whole body aromatization; pretreatment 2.059%): 0.042%
embryotoxic dose (rats [1]): ≥ 50 mg/kg
teratogenicity (rats [1]): not teratogenic
concentration from which the chromosome aberration test was positive (human lymphocytes): ≥ 12000 ng/mL
dose at which inhibition of plasma estrogen levels became apparent [2]: about 1 mg
appearance of new tumors [3]: reduced
objective response rate [3]: 44%
overall success rate (CR+PR+SD>6 months) (metastatic breast cancer [4]; 25 mg): 47%
overall response rate (CR+PR) (metastatic breast cancer [4]; 25 mg, 128 postmenopausal women, 95% CI 21-37): 28%
overall response rate (CR+PR) (metastatic breast cancer [4]; 88 patients who had measurable disease): 34%
median duration of response (metastatic breast cancer [4]; 95% CI 11-20 months): 14 months
overall response rate (metastatic breast cancer [4]; patients with visceral disease): 33%
stable disease>6 months (metastatic breast cancer [4]; treated population): 19%
embryotoxic dose (rabbits): ≥ 270 mg/kg
teratogenicity (rabbits): not teratogenic
overall success rate (CR+PR+SD>6 months) (metastatic breast cancer [5]): 25%
overall objective response rate (metastatic breast cancer [5]; third- and fourth-line): 7%
genotoxic potential, all tests except chromosome aberration in human lymphocytes [6]: negative
tolerability [7]: good tolerability
efficacy against DMBA-induced mammary tumors [8]: highly effective
overall response rate (metastatic breast cancer [9]; 87 women, 95% CI 6-20): 11%
SD>6 months (metastatic breast cancer [9]; additional patients): 17.2%

O=C(c1ccc(OCCN2CCCCC2)cc1)c1c(-c2ccc(O)cc2)sc2cc(O)ccc12 [raloxifene, Raloxifene]
bone mineral density in the hip, spine, femur and total body [10, 18]: increase
markers of bone turnover [10, 18]: decrease
HDL cholesterol ([10]; in vivo): unchanged
serum total and LDL cholesterol ([10]; in vivo): significantly decreased
side effects ([10]; in vivo): increased hot flashes and leg cramps
tolerability ([10]; in vivo): well tolerated
endometrial thickness ([10]; transvaginal ultrasound, any treatment group): unaffected
anti-tumor activity [11]: anti-tumor activity
change in the endometrium on uterine biopsy (endometrium): no change
tolerability (metastatic breast cancer [12]; 14 patients): well tolerated
objective responses (metastatic breast cancer [12]; tamoxifen-refractory group): no objective responses
risk of venous thromboembolic events [13]: increased risk
bone mineral density (ovariectomized rat): increases
serum cholesterol (ovariectomized rat): decreases
response to exogenous estrogen (anti-estrogen effect) (healthy men): blunt
DNA adducts or hepatocarcinogenesis (rats [14]): no reports
relative risk of endometrial cancer (postmenopausal women; p=0.232): 0.38
risk reduction of breast cancer (postmenopausal women; raloxifene 60 or 120 mg/day vs controls): 58%
relative risk of endometrial cancer (postmenopausal women; two cases diagnosed within one month of randomization excluded, p=0.045): 0.13
agonist activity on the rat uterus (rat uterus; administered alone): little agonist activity
uterotropic action of estradiol (rat uterus; immature rat): inhibits

CC/C(=C(\c1ccccc1)c1ccc(OCCN(C)C)cc1)c1ccccc1 [tamoxifen, Tamoxifen]
annual rates of recurrence and mortality ([15]; adjuvant therapy, premenopausal and postmenopausal women): reduce
reduction of the risk of contralateral breast cancer ([15]; five years of adjuvant tamoxifen vs no adjuvant therapy): 47%
appearance of new tumors [3]: reduced
objective response rate [3]: 29%
tumor mitotic rate [16]: marked reduction
response rates (metastatic breast cancer [17]; premenopausal women, metastatic breast cancer): 20 to 45%
objective response rates (metastatic breast cancer [17]; unselected postmenopausal women with metastatic disease): 30 to 40%
response rates (metastatic breast cancer [17]; women with ER-positive and PR-positive tumors): 60-70%

estrogen
change in the endometrium on uterine biopsy (endometrium): significant endometrial stimulation
